In patent publication US20120122765A1, “COMPOUNDS AND RELATED METHODS FOR MANIPULATING PARP-1-DEPENDENT CELL DEATH” (priority 2010, published 2012):
Changes are numbered by the printed parent chain. Names may count otherwise. “Also recorded” adds a separate entry of the source. Blank lines part the entries; values can stand above or below the molecule they belong to. Where no end group is shown, it is not given here.

Legend:
[1] = test system: PAR; experiment: PAR overlay assay of full length AIF and mutants; type: binding; conditions: for reduced PAR binding: radioactive signal normalized to WT-AIF; for binding to 32P-labeled automodified PARP-1 or purified 32P-labeled PAR / effect of hundred fold excess of salmon sperm DNA on PAR binding: overlay assay; for binding to 32P-labeled automodified PARP-1 or purified 32P-labeled PAR: 100 nM PAR; for effect of hundred fold excess of salmon sperm DNA on PAR binding: 32P-labeled PAR; for effect of salmon sperm DNA on PAR binding: salmon sperm DNA at 760 μM
Method: The following experiment was performed to confirm whether AIF in fact binds to PAR. Applicants performed 3 trials of an overlay assay on recombinant AIF with affinity-purified biotin-labeled PAR. Histone H3, which binds to PAR with high affinity, was included as a positive control and bovine serum albumin (“BSA”) was included as a negative control, as described by P. Chang et al. (Nat Cell Bio, 2005). FIG. 1B depicts three photos side by side for gels representative of all trials for these overlay assays. […] Thus, Applicants took the results of these two tests as confirming that AIF binds to PAR in vitro.
To further study these potential AIF PBMs, Applicants performed the following experiment to examine the effect of mutating AIFm amino acids 222-244, 441-463, and/or 567-592 to poly-alanine on the ability of AIF to bind PAR. FIG. 6 comprises black and white photographs of representative gels from an overlay assay of His-tagged WT-AIF, AIFm222-244, AIFm441-463, AIFm567-592, AIFΔ567-592 (i.e., a mutant lacking AAs 567-592), and AIF(K254A, R264A) (i.e., mutating K to A at 254 and R to A at 264) mutants with ^32P-labeled automodified PARP-1 (equivalent to 100 nM of PAR), purified ^32P-labeled PAR (100 nM), or purified ^32P-labeled PAR with either a 100-fold excess of DNA or cold PAR. […] The same can be assumed to corresponding sequences for other species, such as those identified in FIG. 4.
Additionally, to exclude the possibility that PAR polymer is binding to AIF through its DNA-binding domain, PAR polymer binding was assessed against the full length AIF DNA-binding mutant AIFK254A;R264A as described by H Cande et al. (Nat Struct Biol, 2002).
Finally, Human AIF (“AIFH”) is known to bind to DNA through a groove between the FAD-binding domain (“D1”) and C-terminal domain (“D3”). A mutant form of AIFH in which lysine 255 is substituted with alanine and arginine 265 is substituted with alanine (AIFK255A;R265A) completely lacks DNA binding. To investigate the possible contribution of the AIF DNA-binding domain to PAR binding, Applicants assessed PAR binding to AIFm mutated in the same way (AIFK254A;R264A). […] Thus, Applicants concluded that the AIF PAR-binding site is separable from its DNA-binding site, meaning that such binding could be inhibited by genetically modifying AIF without impacting the natural DNA binding capabilities of AIF or potentially by otherwise inhibiting the binding action of the PBMs.

[2] = test system: isolated mitochondria; experiment: AIF binding to isolated mitochondria
Method: One commonly accepted estimate is that approximately 20%-30% of AIF resides on the cytosolic side of the outer membrane of mitochondria, where it is poised to be rapidly released by PAR following PARP-1 activation. Applicants thus wanted to perform tests of AIF binding to mitochondria determine how readily purified WT-AIF and Pbm-AIF bind to mitochondria in a time- and concentration-dependent manner. Specifically, recombinant WT-AIF (2.5 ng/μl) and Pbm-AIF (2.5 ng/μl) were incubated with isolated mitochondria (200 μg/ml) for 1 minute, 5 minutes, 10 minutes, 15 minutes, 20 minutes or 30 minutes. […] The results of this portion of the experiment is provided by the graph of FIG. 15B.
To investigate the mechanism underlying mitochondrial AIF release following PARP-1 activation, Applicants incubated isolated mitochondria with purified non-tagged forms of AIF in the presence or absence of PAR and followed this by centrifugation to remove the mitochondria. Detection of AIF remaining in the supernatant was thereafter performed through immunoblot analysis.
The supernatant collected in the experiments of Example 16 were also analyzed for the presence of Tom20 and cyclochrome c.

[3] = test system: PAR; experiment: nitrocellulose saturation binding experiments; conditions: PAR binding, saturation binding
Excerpt: Applicants thereafter repeated the experiments using both wild type and mutant AIFm peptides spanning only amino acids 567-592 instead of full length AIFm and obtained results consistent with those using full-length AIF. […] The double amino acid mutant Dm (corresponding to only amino acids 567-592 of AIF-Dm so as to consist of SEQ. ID NO. 16) bound PAR. […] Thus, it is preferred in embodiments of the invention when conducting genetic manipulations to convert at least three target basic amino acids in the PBM to hydrophobic amino acids.
The PAR polymer binding properties of the mutant Pbm-AIF was then measured using full-length recombinant His-WT-AIF and His tagged Pbm-AIF (“His-Pbm-AIF”) via a series of nitrocellulose saturation binding experiments. Similar experiments were also conducted for the shorter peptides Dm and Tm in comparison to WT. FIG. 10B through FIG. 10D comprise charts reporting data from these various experiments. With regard to the shorter peptides, Applicants determined that the binding affinity constant (“Kd”) and maximum binding capacity (“Bmax”) of these AIF mimetic peptides and the results are reported in the chart of FIG. 10B. […] FIG. 10D comprises a Scatchard plot (95% confidence interval) of the results.

Molecule: AIFK589L;K592L: His-tagged mouse AIF double leucine mutant, SEQ. ID NO. 21 (LRDKVVVGIVLWNVFNRMPIARLIIL; also: His tag)
- reduced PAR binding [1]: about 85%

Molecule: AIFR588L;K589L: His-tagged mouse AIF double leucine mutant, SEQ. ID NO. 19 (LRDKVVVGIVLWNVFNRMPIALLIIK; also: His tag)
- reduced PAR binding [1]: about 85%

Molecule: AIFR588L;K592L: His-tagged mouse AIF double leucine mutant, SEQ. ID NO. 20 (LRDKVVVGIVLWNVFNRMPIALKIIL; also: His tag)
- reduced PAR binding [1]: about 85%

B1: AIF-Sm: full length mouse AIF, arginine at 588 substituted with alanine (protein, UniProt Q9Z0X1 1-612, looked up, variant R588A)
chain: MFRCGGLAGAFKQKLVPLVRTVYVQRPKQRNRLPGNLFQQWRVPLELQMARQMASSGSSGGKMDNSVLVLIVGLSTIGAGAYAYKTIKEDQKRYNERVMGLGLSPEEKQRRAIASATEGGSVPQIRAPSHVPFLLIGGGTAAFAAARSIRARDPGARVLIVSEDPELPYMRPPLSKELWFSDDPNVTKTLQFRQWNGKERSIYFQPPSFYVSAQDLPNIENGGVAVLTGKKVVHLDVRGNMVKLNDGSQITFEKCLIATGGTPRSLSAIDRAGAEVKSRTTLFRKIGDFRALEKISREVKSITVIGGGFLGSELACALGRKSQASGIEVIQLFPEKGNMGKILPQYLSNWTMEKVKREGVKVMPNAIVQSVGVSGGRLLIKLKDGRKVETDHIVTAVGLEPNVELAKTGGLEIDSDFGGFRVNAELQARSNIWVAGDAACFYDIKLGRRRVEHHDHAVVSGRLAGENMTGAAKPYWHQSMFWSDLGPDVGYEAIGLVDSSLPTVGVFAKATAQDNPKSATEQSGTGIRSESETESEASEITIPPSAPAVPQVPVEGEDYGKGVIFYLRDKVVVGIVLWNVFNRMPIAAKIIKDGEQHEDLNEVAKLFNIHED
modifications: full-length
notes: full length mouse AIF, arginine at 588 substituted with alanine
- reduced PAR binding [1]: 40%

B2: AIF-Dm: full length mouse AIF, arginine 588 and lysine 589 substituted with alanines (protein, UniProt Q9Z0X1 1-612, looked up, variant R588A K589A)
chain: B1 chain with K589A
modifications: full-length
notes: full length mouse AIF, arginine 588 and lysine 589 substituted with alanines
- reduced PAR binding [1]: 80%

B3: AIF-Qm: full length mouse AIF, arginine 588, lysine 589, lysine 592 and arginine 583 substituted with alanines (protein, UniProt Q9Z0X1 1-612, looked up, variant R583A R588A K589A K592A)
chain: B1 chain with R583A, K589A, K592A
modifications: full-length
notes: full length mouse AIF, arginine 588, lysine 589, lysine 592 and arginine 583 substituted with alanines
- reduced PAR binding [1]: 90%

B4: AIFK254A;R264A: full length mouse AIF DNA-binding mutant, K to A at 254 and R to A at 264 (protein)
chain: B1 chain with K254A, R264A, A588R
modifications: left off: small tags and cut ends
- binding to 32P-labeled automodified PARP-1 or purified 32P-labeled PAR ([1]; His-tagged proteins): still substantially binds; also recorded: bound to ^32P-labeled automodified PARP-1 and purified ^32P-labeled PAR
- effect of hundred fold excess of salmon sperm DNA on PAR binding [1]: fails to disrupt
- effect of salmon sperm DNA on PAR binding [1]: failed to disrupt PAR binding

More lines, main results first:

- Tom20 in the supernatant (mitochondrial integrity) ([2]; any concentration of PAR used): could not be detected in the supernatant
Molecule: Poly(ADP-ribose) [PAR, reference compound]
- release of endogenous cytochrome c from mitochondria ([2]; 5 nM and 50 nM PAR): failed to induce the release of endogenous cytochrome c
- release of endogenous cytochrome c from mitochondria ([2]; 100 nM PAR): a weak cytochrome c signal could be detected

- Bmax [3]: 4.57 pmol
- Bmax ([3]; listed as AIFm567-592 peptide): 4.55 pmol
Molecule: peptide of amino acids 567-592 of mouse AIF, SEQ. ID NO. 10 LRDKVVVGIVLWNVFNRMPIARKIIK (mouse) [WT peptide]

- PAR binding ([1]; His-tagged proteins, purified PAR, normalized to WT-AIF, result in words): nearly abolished PAR-binding
Molecule: triple leucine mutant: mouse AIF mutant R588L;K589L;K592L (LRDKVVVGIVLWNVFNRMPIALLIIL; mouse)

- effect of hundred fold excess of salmon sperm DNA on PAR binding [1]: fails to disrupt
- effect of salmon sperm DNA on PAR binding [1]: failed to disrupt PAR binding
B5: AIFm441-463: His-tagged mouse AIF with amino acids 441 to 463 mutated to poly-alanine (protein)
chain: MFRCGGLAGAFKQKLVPLVRTVYVQRPKQRNRLPGNLFQQWRVPLELQMARQMASSGSSGGKMDNSVLVLIVGLSTIGAGAYAYKTIKEDQKRYNERVMGLGLSPEEKQRRAIASATEGGSVPQIRAPSHVPFLLIGGGTAAFAAARSIRARDPGARVLIVSEDPELPYMRPPLSKELWFSDDPNVTKTLQFRQWNGKERSIYFQPPSFYVSAQDLPNIENGGVAVLTGKKVVHLDVRGNMVKLNDGSQITFEKCLIATGGTPRSLSAIDRAGAEVKSRTTLFRKIGDFRALEKISREVKSITVIGGGFLGSELACALGRKSQASGIEVIQLFPEKGNMGKILPQYLSNWTMEKVKREGVKVMPNAIVQSVGVSGGRLLIKLKDGRKVETDHIVTAVGLEPNVELAKTGGLEIDSDFGGFRVNAELQARSNIWVAGDAACAAAAAAAAAAAAAAAAAAAAAAAAGENMTGAAKPYWHQSMFWSDLGPDVGYEAIGLVDSSLPTVGVFAKATAQDNPKSATEQSGTGIRSESETESEASEITIPPSAPAVPQVPVEGEDYGKGVIFYLRDKVVVGIVLWNVFNRMPIARKIIKDGEQHEDLNEVAKLFNIHED
modifications: left off: small tags and cut ends
notes: His-tagged mouse AIF with amino acids 441 to 463 mutated to poly-alanine
- binding to 32P-labeled automodified PARP-1 or purified 32P-labeled PAR ([1]; His-tagged proteins): comparable binding to that of unmutated WT-AIFm
